Source: ChEMBL document CHEMBL1201862, “PubChem BioAssay data set” (2004)
Blank lines part the entries; values can stand above or below the compound they belong to. The source made the active and inactive calls.

Columns and labels:
[1] = viability inhibitors of stage V gametocytes – luminescence, dose response (AID 1117278); assay type: functional, cell-based;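 further: gametocytes exposed to compound for 24 hours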
[2] = viability loss in human Jurkat cells – cell-based, luminescence, cytotoxicity control for P. falciparum gametocyte viability project, dose response (AID 1117277); assay type: functional;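 further: potency reflects loss of cellular ATP meaning fewer viable cells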
[3] = test system: BJ; assay: BJ-TERT fibroblast viability loss – cell-based, RAS-independent, luminescence, dose response (AID 1933); assay type: functional; details: Homo sapiens
[4] = test system: BJ; assay: cells; assay type: functional, cell-based; details: Homo sapiens
[5] = test system: HT-1080; assay: HT1080 cell viability loss – fluorescence readout (AID 620); assay type: functional, cell-based; details: Homo sapiens
[6] = test system: BJ; assay: BJ-TERT-LT-ST fibroblast viability loss – cell-based, RAS-independent, luminescence, dose response (AID 1935); assay type: functional; details: Homo sapiens;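 further: BJ fibroblasts immortalized with TERT plus LT and ST oncogenes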
[7] = DRD fibroblast viability loss – cell-based, non-viral oncogenic, luminescence, dose response (AID 1934); assay type: functional; details: Homo sapiens
[8] = test system: HEK293; assay: EBV LMP1 TES2 canonical NF-kB signalling blockers – cell-based, HEK293, luciferase, cherry-pick, dose response (AID 588343); assay type: functional; details: Homo sapiens
[9] = A549 cell cytotoxicity, dose response, cytotoxicity control, plate reader, cherry-pick, antagonist series (AID 743412); assay type: functional, cell-based
[10] = toxicity toward HepG2 liver cells – cell-based, plate reader, cherry-pick, antagonist series, cytotoxicity control, dose response (AID 743416); assay type: functional
[11] = blockers of bursicon-stimulated LGR2 cAMP reporter – cell-based, HEK293, CRE-luciferase reporter, cherry pick, set 2, dose response (AID 743343); assay type: functional;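 further: transfected cells were stimulated with diluted bursicon conditioned medium after compound addition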
[12] = blockade of melanocortin 4 receptor signaling – cell-based, plate reader, cherry pick, counter-screen for LGR2 antagonist project, dose response (AID 743444); assay type: functional;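 further: transfected HEK 293 cells stimulated with alpha-MSH peptide; potency of inhibitors of the alpha-MSH evoked signal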
[13] = target: T1, Oxysterols receptor LXR-beta (Homo sapiens, UniProt P55055); assay type: functional, cell-based;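 further: Cell-based luminescence dose-response assay of agonist activity at LXR, run as a confirmatory counterscreen to a daf-12 agonist screen; HEK293 cells with Gal4-LXR fusion and GAL4-driven luciferase reporter; agonist potency from rising luciferase signal of a Gal4-LXR reporter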
T1 sequence (P55055 whole entry): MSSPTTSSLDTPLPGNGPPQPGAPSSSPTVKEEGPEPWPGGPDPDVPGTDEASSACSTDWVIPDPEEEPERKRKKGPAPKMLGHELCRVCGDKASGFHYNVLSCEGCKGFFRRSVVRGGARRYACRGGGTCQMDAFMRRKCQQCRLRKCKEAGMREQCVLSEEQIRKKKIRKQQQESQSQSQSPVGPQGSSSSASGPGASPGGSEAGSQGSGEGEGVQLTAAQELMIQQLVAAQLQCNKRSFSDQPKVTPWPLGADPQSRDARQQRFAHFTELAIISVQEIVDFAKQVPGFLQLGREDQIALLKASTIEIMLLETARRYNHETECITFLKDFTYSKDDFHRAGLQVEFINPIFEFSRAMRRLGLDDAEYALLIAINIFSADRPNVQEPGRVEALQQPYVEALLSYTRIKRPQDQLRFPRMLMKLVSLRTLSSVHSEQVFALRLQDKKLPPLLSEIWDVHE

[14] = viability loss in HEK293 cells – cell-based, plate reader, cherry-picked samples, cytotoxicity control, dose response (AID 743446); assay type: functional
[15] = cells
[16] = target: Mitogen-activated protein kinase 10 (Homo sapiens, UniProt P53779); assay: Dose response biochemical screening assay for inhibitors of c-Jun N-Terminal Kinase 3 (JNK3). [Related pubchem assays: 746 ]
[17] = target: T2, Aryl hydrocarbon receptor (Homo sapiens, UniProt P35869); assay: Luminescence-based cell-based high throughput dose response assay for activators of the Aryl Hydrocarbon Receptor (AHR). [Related pubchem assays: 2796 (Primary screen (AHR activators in singlicate)), 2845 (Confirmation screen (AHR activators in triplicate)), 434939 (Counterscreen (PXR activators in triplicate)), 2804 (Summary (AHR activators))]; assay type: ADME
T2 sequence (P35869 whole entry): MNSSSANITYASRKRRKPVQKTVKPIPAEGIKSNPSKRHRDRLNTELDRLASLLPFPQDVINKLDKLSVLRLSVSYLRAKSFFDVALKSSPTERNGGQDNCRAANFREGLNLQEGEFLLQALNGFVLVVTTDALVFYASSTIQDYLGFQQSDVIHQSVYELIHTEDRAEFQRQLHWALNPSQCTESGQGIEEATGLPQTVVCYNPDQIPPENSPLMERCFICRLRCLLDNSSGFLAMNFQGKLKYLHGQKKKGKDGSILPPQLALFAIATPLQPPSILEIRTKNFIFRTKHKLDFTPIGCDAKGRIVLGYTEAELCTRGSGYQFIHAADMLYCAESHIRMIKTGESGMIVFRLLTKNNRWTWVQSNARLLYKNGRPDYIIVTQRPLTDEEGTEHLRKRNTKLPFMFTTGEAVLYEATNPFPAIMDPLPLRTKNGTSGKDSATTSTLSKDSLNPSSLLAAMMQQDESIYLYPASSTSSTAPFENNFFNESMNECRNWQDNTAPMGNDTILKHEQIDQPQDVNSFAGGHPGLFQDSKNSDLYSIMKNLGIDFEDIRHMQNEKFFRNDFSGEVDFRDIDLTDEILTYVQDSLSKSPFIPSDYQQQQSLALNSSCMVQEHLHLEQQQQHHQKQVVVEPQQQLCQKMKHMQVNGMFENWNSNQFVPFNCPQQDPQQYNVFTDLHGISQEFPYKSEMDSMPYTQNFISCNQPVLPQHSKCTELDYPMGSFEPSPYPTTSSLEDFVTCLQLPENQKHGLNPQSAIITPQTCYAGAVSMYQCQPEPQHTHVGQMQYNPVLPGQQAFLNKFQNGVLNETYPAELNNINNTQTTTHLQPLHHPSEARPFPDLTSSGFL

[18] = target: Sphingosine 1-phosphate receptor 2 (Homo sapiens, UniProt O95136); assay: Dose Response Cell Based Assay for Antagonists of the S1P2 Receptor. [Related pubchem assays: 856, 736 ]; assay type: functional
[19] = target: Cytochrome P450 2C19 (Homo sapiens, UniProt P33261); assay: Cytochrome panel assay with activity outcomes. Panel member name: p450-cyp2c19 Compounds with AC50 equal or less than 10 uM are considered active; assay type: functional; details: read-out: AC50
[20] = target: Cytochrome P450 2C9 (Homo sapiens, UniProt P11712)
[21] = Dd2 parasite growth inhibition in erythrocytes – SYBR Green, dry powder samples, set 9, dose response (AID 1159568); assay type: functional, cell-based
[22] = Luminescence-based dose response cell-based high throughput screening assay for cytotoxic compounds using the IEC-6 intestinal epithelial cell line. [Related pubchem assays: 1858 (Summary AID.), 1825 (Counterscreen.), 1907 (Confirmation screen.)]; assay type: functional

Sphingosine 1-phosphate receptor 2, sequence (O95136 whole entry): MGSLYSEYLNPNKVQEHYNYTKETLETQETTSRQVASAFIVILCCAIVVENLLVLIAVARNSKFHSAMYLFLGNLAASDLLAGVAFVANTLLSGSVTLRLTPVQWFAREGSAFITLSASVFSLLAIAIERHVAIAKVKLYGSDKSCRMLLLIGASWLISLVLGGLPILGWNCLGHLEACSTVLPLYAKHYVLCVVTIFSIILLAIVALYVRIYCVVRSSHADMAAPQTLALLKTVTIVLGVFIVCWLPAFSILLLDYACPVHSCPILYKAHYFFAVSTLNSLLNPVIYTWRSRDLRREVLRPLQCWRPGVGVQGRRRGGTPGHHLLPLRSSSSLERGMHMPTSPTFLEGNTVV
Mitogen-activated protein kinase 10, sequence (P53779 whole entry): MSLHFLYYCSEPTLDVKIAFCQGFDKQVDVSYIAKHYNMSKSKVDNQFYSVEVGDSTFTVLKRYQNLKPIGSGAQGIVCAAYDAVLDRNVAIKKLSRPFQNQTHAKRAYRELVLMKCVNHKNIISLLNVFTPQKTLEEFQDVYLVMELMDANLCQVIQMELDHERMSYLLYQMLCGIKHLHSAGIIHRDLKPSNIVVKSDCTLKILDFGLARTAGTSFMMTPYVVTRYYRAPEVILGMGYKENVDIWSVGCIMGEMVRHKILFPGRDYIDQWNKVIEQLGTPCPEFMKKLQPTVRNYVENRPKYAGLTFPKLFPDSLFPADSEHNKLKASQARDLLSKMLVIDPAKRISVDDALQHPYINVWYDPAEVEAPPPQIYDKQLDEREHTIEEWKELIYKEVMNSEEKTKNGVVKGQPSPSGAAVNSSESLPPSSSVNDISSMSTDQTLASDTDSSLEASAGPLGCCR
Cytochrome P450 2C9, sequence (P11712 whole entry): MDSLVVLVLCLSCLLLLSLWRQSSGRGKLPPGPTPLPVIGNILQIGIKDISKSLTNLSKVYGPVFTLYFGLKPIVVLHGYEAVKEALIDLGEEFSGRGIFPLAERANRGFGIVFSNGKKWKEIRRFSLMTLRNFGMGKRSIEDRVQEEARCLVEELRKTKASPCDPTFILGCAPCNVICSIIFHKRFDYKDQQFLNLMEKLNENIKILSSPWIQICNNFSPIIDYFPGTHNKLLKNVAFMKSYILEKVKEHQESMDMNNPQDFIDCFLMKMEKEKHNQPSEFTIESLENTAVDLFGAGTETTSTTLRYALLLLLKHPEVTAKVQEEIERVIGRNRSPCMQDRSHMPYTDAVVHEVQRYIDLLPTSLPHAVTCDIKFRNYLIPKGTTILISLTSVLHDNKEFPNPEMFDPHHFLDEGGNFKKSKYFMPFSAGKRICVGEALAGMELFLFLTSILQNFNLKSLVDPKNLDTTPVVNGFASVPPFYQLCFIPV
Cytochrome P450 2C19, sequence (P33261 whole entry): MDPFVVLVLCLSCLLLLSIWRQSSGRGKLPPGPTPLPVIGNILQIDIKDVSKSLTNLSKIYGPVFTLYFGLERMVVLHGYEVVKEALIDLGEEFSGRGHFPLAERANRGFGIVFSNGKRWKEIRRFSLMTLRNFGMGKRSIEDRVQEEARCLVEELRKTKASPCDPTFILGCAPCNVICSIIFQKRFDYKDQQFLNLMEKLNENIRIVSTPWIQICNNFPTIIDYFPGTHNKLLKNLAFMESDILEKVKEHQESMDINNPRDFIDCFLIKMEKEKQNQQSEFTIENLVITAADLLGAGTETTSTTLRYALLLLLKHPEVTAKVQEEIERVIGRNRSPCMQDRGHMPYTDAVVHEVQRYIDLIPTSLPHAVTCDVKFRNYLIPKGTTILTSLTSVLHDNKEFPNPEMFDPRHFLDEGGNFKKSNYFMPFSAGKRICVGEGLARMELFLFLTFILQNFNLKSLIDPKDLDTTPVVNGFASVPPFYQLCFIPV

SMILES: CCC(C(=O)NCc1cccnc1)c1ccccc1 (configuration not stated)
IC50 [1]: > 109 µM (inactive)
IC50 [2]: > 83.2 µM (inactive)

SMILES: COc1ccccc1-c1nc(-c2ccccn2)no1
EC50 [3]: 9.58 µM (active)
EC50 [4]: 10.4 µM (active)
EC50 [5]: > 50 µM (not active)
EC50 [6]: > 150 µM (inconclusive)
EC50 [7]: 7.2 µM (active)
AC50 [8]: 1.26 µM (active)
AC50 [9]: 10.4 µM (active)
AC50 [10]: 19.4 µM (active)
AC50 [11]: 3.35 µM (active)
AC50 [12]: 2.05 µM (active)
EC50 [13]: > 67.5 µM (inactive)
AC50 [14]: 10.7 µM (active)
EC50 [15]: > 67.5 µM (inactive)

IC50 [16]: 18 µM (not active)
SMILES: O=C1c2ccccc2C(=O)C1c1ccncc1

EC50 [17]: 3.41 µM (active)
SMILES: O=C(/C=C\c1cccs1)c1c(O)ccc2ccc(=O)oc12

IC50 [18]: > 30 µM (not active)
AC50 [19]: 39.8 µM (inconclusive)
AC50 [20]: 28.2 µM (inconclusive)
SMILES: O=C(O)c1sc2cc(C(F)(F)F)cnc2c1-c1ccccc1

SMILES: O=C(Nc1ccccc1F)N1CCCCN2[C@H](CO)[C@H](c3ccc(/C=C/c4ccccc4)cc3)[C@H]2C1
AC50 [21]: 1.6 µM (active)

SMILES: CCC[C@@H](CNC)NC[C@H](Cc1ccccc1)NCCCCc1ccccc1
IC50 [22]: 5.4 µM (active)
